{"source": "patent US20070093520A1", "about": "“Method of treatment of diarrhea-predominant irritable bowel syndrome in a subject” (priority 2005, published 2007)", "key": {"[1]": {"test_system": "subjects with ROME II defined IBS-D", "assay": "5050 Study: IBS-QoL survey", "type": "in vivo, human", "design": "IBS-QoL subscale score: Interference with activity / IBS-QoL subscale score: Food avoidance / IBS-QoL subscale score: Sexual / IBS-QoL subscale score: Health Worry / IBS-QoL subscale score: Relationship / IBS-QoL subscale score: Body Image / IBS-QoL subscale score: Social Reaction / IBS-QoL subscale score: Dysphoria: scale not given here", "conditions": "Study 5050", "method": "The 5050 Study was a double-blind, randomized, placebo-controlled study to evaluate the long-term safety and tolerability of cilansetron 2 mg taken on an as needed (prn) basis for 1 year by male and female subjects with ROME II defined IBS-D. The study was performed in 68 centers. Patients were randomized in a 3:1 ratio to receive either cilansetron 2 mg prn or placebo, up to 3 times a day. Safety parameters were explored by comparing the double-blind groups, average daily doses and treatment exposure. Patient visits were scheduled as follows: Visit 1 (pretreatment), Visit 2 (Day 1), Visit 3 (Month 1), Visit 4 (Month 3), Visit 5 (Month 6), Visit 6 (Month 9), and Visit 7 (Month 12). Safety assessments included: adverse events (AEs)/serious adverse events (SAES); laboratory parameters (pretreatment visit and at Months 1, 6, and 12); electrocardiograms (pretreatment visit and at Months 1, 6, and 12); vital signs (at each visit); physical examinations and body weight (pretreatment visit and at Month 12); prior and concomitant medication use (each visit and/or through spontaneous reporting); stool cards for occult blood (every visit except Visit 1). The number of tablets taken per day was recorded daily through a validated interactive voice response system. Patients who met the ROME criteria for IBS and ROME II criteria for the diarrhea predominant subpopulation were included in the study. Patients with acute colitis of any etiology, history of chronic colitis of any etiology, or a history of intestinal obstruction, stricture, toxic megacolon, gastrointestinal (GI) perforation, or fecal impaction were excluded from the study.\nSubjects were asked to complete a IBS-QOL Survey at Day 1 (Visit 5 of the core protocol), Month 6 and Month 12 (end of study or early termination) in order to assess possible changes of their QOL. The IBS-QoL survey, a 34 item IBS-specific QoL questionnaire consisting of 8 subscales (i.e., interference with activity; body image; health worry; food avoidance; social reaction; sexual; relationship; and dysphoria) was completed by patients at baseline and at later specified time points (e.g., at week 12 and at week 16 in Study 5050)."}, "[2]": {"test_system": "diarrhea-predominant IBS subjects", "assay": "3007 Study: 12-lead ECG abnormalities", "type": "in vivo, human", "conditions": "Study 3007", "method": "Resting 12-lead ECGs were performed at Day 1 (Visit 5 of the core protocol), Months 1, 6, and 12 (end of study or early termination visit). A centralized ECG service was used to evaluate all ECG tracings to supply consistent standardized ECG interpretation.\nAll analyses and summaries for ECG assessments were based on the evaluation performed in the central ECG laboratory.\nFor Study 3007, “baseline’ was defined as the pre-treatment period of core Study 3006 for subjects randomized to the cilansetron treatment group in Study 3006 and as the last post-Baseline visit of Study 3006 (normally Visit 5) for subjects randomized to the placebo group in Study 3006. The by-timepoint analyses were based on timepoints defined in Section 5.7.1.2.\nSummary statistics are presented for PR, QRS, QT, and QTc intervals (Bazett and Fridericia formulas) and heart rate at each visit and at Endpoint, as well as for change from Baseline results at each post-Baseline visit and at Endpoint. Bazett's and Fridericia's QTc intervals were calculated based on the following formulas: Bazett: QTc intervals=QT/√RR Fridericia: QTc intervals=QT/^3√RR\nMarkedly abnormal ECG parameter values collected after the first dose of study medication and within 30 days of the last dose of study medication were summarized overall. The following criteria were applied to identify markedly abnormal parameter values: • PR ≧0.210 sec; • QRS ≧0.120 sec; • QTc >0.440 sec;\nHeart rate ≧120 bpm or ≦50 bpm or change of ≧15 bpm.\nThe determination of markedly abnormal for QTc was carried out separately for both the Bazett correction and the Fridericia correction.\nThe incidence of treatment-emergent ECG abnormalities is presented overall and by type of abnormality. A treatment-emergent ECG abnormality was an abnormality identified by the ECG core laboratory that was not present at baseline (e.g., prior to the entry into core Study 3006), and was observed on or after initiation of study medication and up to 30 days after discontinuation of study medication. The incidence of treatment-emergent ECG abnormalities is presented by time interval, as well as overall for the entire treatment period. The incidence of treatment-emergent abnormalities is also presented in more general categories (e.g., presenting incidence of treatment-emergent myocardial infarction overall as well as by location), depending on whether it mitigates the interpretation.\nThe overall incidence of marked abnormalities for ECG parameters is presented overall by gender and overall."}, "[3]": {"test_system": "diarrhea-predominant IBS subjects", "conditions": "human, in vivo"}, "[4]": {"conditions": "Table 10.5, time point not stated"}}, "data": [{"smiles": "Cc1nccn1C[C@H]1CCc2c(c3cccc4c3n2CCC4)C1=O", "note": "[cilansetron, (R)-(−)-4,5,6,8,9,10-hexahydro-10-[(2-methyl-1H-imidazol-1-yl)methyl]-11H-pyrido-[3,2,1-jk]-carbazol-11-one]", "values": [{"measurement": "IBS-QoL subscale score: Body Image", "setting": "[1]; [4]", "result": 61.7}, {"measurement": "IBS-QoL subscale score: Dysphoria", "setting": "[1]; [4]", "result": 47.4}, {"measurement": "IBS-QoL subscale score: Food avoidance", "setting": "[1]; [4]", "result": 38.3}, {"measurement": "IBS-QoL subscale score: Health Worry", "setting": "[1]; [4]", "result": 65.3}, {"measurement": "IBS-QoL subscale score: Interference with activity", "setting": "[1]; [4]", "result": 41.1}, {"measurement": "IBS-QoL subscale score: Relationship", "setting": "[1]; [4]", "result": 62.5}, {"measurement": "IBS-QoL subscale score: Sexual", "setting": "[1]; [4]", "result": 72.2}, {"measurement": "IBS-QoL subscale score: Social Reaction", "setting": "[1]; [4]", "result": 58.3}, {"measurement": "change from baseline of IBS-QoL total score, interference with activity, body image, sexual score and dysphoria", "setting": "[1]; p<0.050", "result": "significant improvement"}, {"measurement": "marked ECG abnormality: decreased heart rate", "setting": "[2]; female subjects", "result": 6, "unit": "%"}, {"measurement": "marked ECG abnormality: prolonged QTc(B)", "setting": "[2]; female subjects", "result": 23, "unit": "%"}, {"measurement": "marked ECG abnormality: prolonged QTc(F)", "setting": "[2]; female subjects", "result": 10, "unit": "%"}, {"measurement": "treatment-emergent ECG abnormality: early repolarization-normal variant", "setting": "[2]; female subjects", "result": 2, "unit": "%"}, {"measurement": "treatment-emergent ECG abnormality: poor R-wave progression", "setting": "[2]; female subjects", "result": 13, "unit": "%"}, {"measurement": "treatment-emergent ECG abnormality: sinus arrhythmia", "setting": "[2]; female subjects", "result": 19, "unit": "%"}, {"measurement": "marked ECG abnormality: decreased heart rate", "setting": "[2]; male subjects", "result": 13, "unit": "%"}, {"measurement": "marked ECG abnormality: prolonged QTc(B)", "setting": "[2]; male subjects", "result": 6, "unit": "%"}, {"measurement": "marked ECG abnormality: prolonged QTc(F)", "setting": "[2]; male subjects", "result": 3, "unit": "%"}, {"measurement": "treatment-emergent ECG abnormality: early repolarization-normal variant", "setting": "[2]; male subjects", "result": 19, "unit": "%"}, {"measurement": "treatment-emergent ECG abnormality: poor R-wave progression", "setting": "[2]; male subjects", "result": 6, "unit": "%"}, {"measurement": "treatment-emergent ECG abnormality: sinus arrhythmia", "setting": "[2]; male subjects", "result": 25, "unit": "%"}, {"measurement": "incidence of prolonged QT interval", "setting": "[2]; overall", "result": 4, "unit": "%"}, {"measurement": "marked ECG abnormality: heart rate decrease", "setting": "[2]; overall", "result": 14, "unit": "%"}, {"measurement": "marked ECG abnormality: heart rate increase", "setting": "[2]; overall", "result": 15, "unit": "%"}, {"measurement": "marked ECG abnormality: prolonged QTc(B)", "setting": "[2]; overall", "result": 17, "unit": "%"}, {"measurement": "subjects with a post-Baseline marked ECG abnormality", "setting": "[2]; overall", "result": 50, "unit": "%"}, {"measurement": "subjects with a treatment-emergent ECG abnormality", "setting": "[2]; overall", "result": 62, "unit": "%"}, {"measurement": "treatment-emergent ECG abnormality: borderline LA enlargement", "setting": "[2]; overall", "result": 6, "unit": "%"}, {"measurement": "treatment-emergent ECG abnormality: early R-wave transition", "setting": "[2]; overall", "result": 6, "unit": "%"}, {"measurement": "treatment-emergent ECG abnormality: early repolarization-normal variant", "setting": "[2]; overall", "result": 8, "unit": "%"}, {"measurement": "treatment-emergent ECG abnormality: non-specific T-wave changes", "setting": "[2]; overall", "result": 7, "unit": "%"}, {"measurement": "treatment-emergent ECG abnormality: poor R-wave progression", "setting": "[2]; overall", "result": 11, "unit": "%"}, {"measurement": "treatment-emergent ECG abnormality: sinus arrhythmia", "setting": "[2]; overall", "result": 21, "unit": "%"}, {"measurement": "treatment-emergent ECG abnormality: sinus bradycardia", "setting": "[2]; overall", "result": 10, "unit": "%"}, {"measurement": "TEAE leading to permanent discontinuation: Oesophageal Reflux Aggravated", "setting": "[3]; both", "result": "1 (<1%) n (%)"}, {"measurement": "TEAE: Oesophageal Reflux Aggravated", "setting": "[3]; both, 52 weeks", "result": "3 (<1%) n (%)"}, {"measurement": "TEAE: Gastrooesophageal Reflux Disease", "setting": "[3]; 52 weeks", "result": "4 (<1%) n (%)"}]}]}
